From BindingDB's records for doi:10.7270/Q2B27SRF (Broad Institute, 2010)
Counter-ions that a name gives are not always drawn.

biological target: Serine/threonine-protein kinase 33 (Homo sapiens, UniProt Q9BYT3); test: inhibition of STK33 phosphorylation of MBP – biochemical, luminescence, cell-free, retest, dose response (AID 2821)
Sequence (Q9BYT3 whole entry): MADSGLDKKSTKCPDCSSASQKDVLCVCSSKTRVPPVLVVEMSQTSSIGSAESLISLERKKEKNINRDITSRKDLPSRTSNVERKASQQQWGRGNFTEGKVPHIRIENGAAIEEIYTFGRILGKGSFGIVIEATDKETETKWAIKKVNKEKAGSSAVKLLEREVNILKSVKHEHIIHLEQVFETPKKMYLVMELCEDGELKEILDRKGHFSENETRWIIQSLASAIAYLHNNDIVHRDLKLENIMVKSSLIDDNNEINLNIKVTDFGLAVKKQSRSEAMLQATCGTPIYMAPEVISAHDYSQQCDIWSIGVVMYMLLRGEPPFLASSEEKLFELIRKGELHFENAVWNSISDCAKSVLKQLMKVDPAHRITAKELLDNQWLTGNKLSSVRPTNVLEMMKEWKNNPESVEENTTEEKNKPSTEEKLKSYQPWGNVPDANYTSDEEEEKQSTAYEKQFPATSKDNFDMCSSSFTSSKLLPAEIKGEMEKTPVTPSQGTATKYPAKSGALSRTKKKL

Row | Structure (SMILES) | EC50 [µM]
1 | CN1CCc2c(sc3c2c(=O)n(-c2ccccc2)c2n[nH]c(=S)n32)C1 [MLS000558136] | > 120
2 | Cc1c(/C=C/C(=O)c2ccc(O)cc2)cnn1C [MLS000578554] | 22.2
3 | Cc1cccc(C(=N)NOC(=O)c2ccc3c(c2)OCO3)c1 [MLS000579340] | 37.3
4 | O=C1C=CC(=CCc2ccnc3ccccc23)C=C1 [MLS000705243] | 11.5
5 | COc1ccc(/C=C/c2nc3ccccc3n2C)cc1 [MLS000719304] | 26.1
6 | COc1cc(C=Nn2c(-c3cc(C)[nH]n3)n[nH]c2=S)ccc1O [MLS000778764] | 27.6
7 | O=C1/C(=C/c2ccc(O)c(O)c2)Oc2cc(O)ccc21 [MLS000863576] | 9.63
8 | CCC(C(=O)Nc1ccc2[nH]ncc2c1)c1ccccc1 (centres undefined) [MLS001001015] | 9.54
9 | COc1ccc(NC(=S)Nc2ccc3cn[nH]c3c2)cc1 [MLS001005420] | > 120
10 | CN(C)S(=O)(=O)c1cccc(NC(=S)Nc2ccc3cn[nH]c3c2)c1 [MLS001033726] | 38.7
11 | OCCN1CCN(c2nc(-c3ccccc3O)nc3ccccc23)CC1 [MLS001165184] | 23.1
12 | CCCCCCCCCCC[N+](C)(C)CC/C=C1/c2ccccc2Sc2ccc(Cl)cc21 [MLS001165405] | > 120
13 | COc1cccc(-c2onc3ccc(C(=O)/C=C/N(C)C)cc23)c1 [MLS001165915] | 12
14 | O=C(O)c1cc(N=NCc2c(O)ccc3ccccc23)ccc1Cl [MLS001173801] | 32.3
15 | Cc1nc[nH]c1C(=O)NN=Cc1c(Cl)cccc1Cl [MLS001182271] | > 120
16 | CC1CCN(C2=NC(=O)/C(=C/c3ccc(O)cc3)S2)CC1 [MLS001205076] | 10.4
17 | Cc1ccc(C(=O)O/N=C(\N)c2ccccn2)c(Cl)c1 [MLS001206211] | 32.2
18 | CC(=O)N(C)c1ccc(N=Cc2c(O)ccc3ccccc23)cc1 [MLS001212262] | 3.76
19 | O=C(NCCCO)c1cc2c([nH]c3ccccc32)c(-c2ccccc2)n1 [MLS001214182] | 23.4
20 | CN1CCCC1CCNc1ccc2oc3ccccc3c(=O)c2c1 (centres undefined) [MLS001249997] | > 120
21 | CCCCC(CC)CNC(=N)NC(=N)NCCCCCCNC(=N)NC(=N)NCC(CC)CCCC (centres undefined) [MLS002153995] | > 120

Row | Structure (SMILES) | EC50 [µM]
22 | COc1cc(C(=O)NC2CCN(C)CC2)ccc1Nc1ncc2c(n1)N(C1CCC(O)CC1)CCC(=O)N2C (centres undefined) [MLS002232305] | 8.38
23 | CCOc1ccc(Nc2nc(N)c3ccccc3n2)cc1 [N2-(4-ethoxyphenyl)quinazoline-2,4-diamine;hydrochloride] | > 120
24 | c1ccc(Nc2ccnc(Nc3ccccc3)n2)cc1 [N*2*,N*4*-Diphenyl-pyrimidine-2,4-diamine] | 14.9
25 | Cc1cc(O)ccc1NS(=O)(=O)c1ccc2c3c(cccc13)C(=O)N2 [N-(2-methyl-4-oxidanyl-phenyl)-2-oxidanylidene-1H-benzo[cd]indole-6-sulfonamide] | 19.2
26 | CCOc1ccccc1C(=O)Nc1cc(Cl)ccc1O [N-(5-chloranyl-2-oxidanyl-phenyl)-2-ethoxy-benzamide] | 6.82
27 | CCn1c2ccc(C(C)N=O)cc2c2cc(C(C)N=O)ccc21 (centres undefined) [N-[1-[9-ethyl-6-(C-methyl-N-oxidanyl-carbonimidoyl)carbazol-3-yl]ethylidene]hydroxylamine] | > 120
28 | O=C(Nc1ccccc1-c1nc2ccccc2[nH]c1=O)c1cccs1 [N-[2-(3-oxo-4H-quinoxalin-2-yl)phenyl]-2-thiophenecarboxamide] | 2.1
29 | CN1CCN(c2ccc(NC(=O)c3ccc(-c4cccc([N+](=O)[O-])c4)o3)cc2)CC1 [N-[4-(4-methylpiperazin-1-yl)phenyl]-5-(3-nitrophenyl)furan-2-carboxamide] | 20.2
30 | CS(=O)(=O)Nc1ccc(-c2cc(C=C3SC(N)=NC3=O)c[nH]c2=O)cc1 [N-[4-[5-[(Z)-(2-azanyl-4-oxidanylidene-1,3-thiazol-5-ylidene)methyl]-2-oxidanylidene-1H-pyridin-3-yl]phenyl]methanesulfonamide] | 8.09
31 | C=CC(=O)Nc1ccc(Nc2nc(NC3CCC(N(C)C)CC3)nc3c2ncn3C(C)C)cc1 (centres undefined) [N-[4-[[2-[[4-(dimethylamino)cyclohexyl]amino]-9-propan-2-yl-purin-6-yl]amino]phenyl]prop-2-enamide] | 0.883
32 | C=CC(=O)Nc1ccc(CN2C(=O)N(c3c(Cl)c(OC)cc(OC)c3Cl)Cc3cnc(NCCCCN(CC)CC)nc32)cc1 [N-[4-[[3-[2,6-bis(chloranyl)-3,5-dimethoxy-phenyl]-7-[4-(diethylamino)butylamino]-2-oxidanylidene-4H-pyrimido[4,5-d]pyrimidin-1-yl]methyl]phenyl]prop-2-enamide] | 0.618
33 | COc1ccc(-c2oc3ncnc(NCCCN(C)C)c3c2-c2ccc(OC)cc2)cc1 [N-[5,6-bis(4-methoxyphenyl)furo[2,3-d]pyrimidin-4-yl]-N',N'-dimethyl-propane-1,3-diamine] | 33.6
34 | COC(=O)Nc1nnc(Cc2ccccc2)s1 [N-[5-(phenylmethyl)-1,3,4-thiadiazol-2-yl]carbamic acid methyl ester] | > 120
35 | Cc1occc1C(=O)NN=Cc1ccc(N(C)C)cc1 [N-[[4-(dimethylamino)phenyl]methylideneamino]-2-methylfuran-3-carboxamide] | > 120
36 | O=C1Nc2ccccc2C1=Cc1cnc[nH]1 [SMR000180717] | 7.94
37 | CCN(CC)C(=O)c1ccc(NC(=O)Nc2ccccc2F)cc1 [SMR000376874] | > 120
38 | COc1cccc(C(=O)ON=C(N)c2ccccn2)c1 [The compound has not trivial name.] | 22.7
39 | Cc1ccc(NC(=O)c2cccc(C(=O)Nc3ccc(C)cc3C(=O)O)c2)c(C(=O)O)c1 [The compound has not trivial name.] | 21.8
40 | O=C(Nc1ccccc1C(=O)O)c1cccc(C(=O)Nc2ccccc2C(=O)O)c1 [The compound has not trivial name.] | 59.6
41 | CCCCCCCCCC[N+](C)(C)CC/C=C1/c2ccccc2Sc2ccc(Cl)cc21 [[(3Z)-3-(2-chloro-9-thioxanthenylidene)propyl]-decyl-dimethylammonium;bromide] | > 120

Further lines, results first:

Row | EC50 [µM] | Structure (SMILES)
42 | 10.3 | Cc1cc(N2CCN(C)CC2)nc2ccc(NC(=O)c3ccc(Br)o3)cc12 [SMR000022431]
43 | 8.03 | O=C1c2ccccc2-c2onc3ccc(NCCCn4ccnc4)c1c23 [SMR000044769]
44 | 5.88 | O=C1c2c(O)ccc(O)c2C(=O)c2c(NCCNCCO)ccc(NCCNCCO)c21 [SMR000058480]
45 | 26.6 | c1cncc(Nc2nc(-c3cccnc3)cs2)c1 [SMR000077836]
46 | 22.5 | Cc1cccc(-c2nc3ccccc3c3nncn23)c1 [SMR000106108]
47 | > 120 | O=C1C=CC(O)(c2cc(=O)c3c(O)cc(O)cc3o2)C=C1 [SMR000156275]
48 | 68.2 | COc1ccc(C(=O)ON=C(C)c2ccccc2)cc1 [SMR000159704]
49 | 32.5 | O=C(O)c1cccc(Nc2nc(-c3cccnc3)nc3ccccc23)c1 [SMR000172180]
50 | > 120 | N=c1c2c(-c3ccccc3)c(-c3ccccc3)oc2ncn1Cc1ccco1 [SMR000176070]
51 | 2.11 | O=C1N=C(NCc2ccccc2)SC1=Cc1ccc(O)cc1 [SMR000217101]
52 | 17 | Cc1sc2ncnc(N=NCc3cccc(O)c3)c2c1C [SMR000219295]
53 | > 120 | Cc1ccc(NC(=O)COC(=O)c2cc(Cl)ccc2Cl)c(Br)c1 [SMR000259824]
54 | > 120 | CC(C)N=C(S)Nc1ccc2c[nH]nc2c1 [SMR000261130]
55 | > 120 | S=C(Nc1cccc(Cl)c1)Nc1ccc2cn[nH]c2c1 [SMR000261299]
56 | 9.41 | CCc1ccc(NC(S)=Nc2ccc3c[nH]nc3c2)cc1 [SMR000261301]
57 | 49.7 | CCNC(=S)Nc1ccc2cn[nH]c2c1 [SMR000261305]
58 | 3.46 | O=S(=O)(O)c1cccc(N=Nc2c(O)ccc3ccccc23)c1 [SMR000273743]
59 | 8.73 | O=C1NC(=O)/C(=C\c2ccc(O)cc2O)S1 [SMR000274064]
60 | 14.2 | O=C(O)Cn1cc(C=c2sc3nc4ccccc4n3c2=O)c2ccccc21 [SMR000298358]

Row | EC50 [µM] | Structure (SMILES)
61 | 8.49 | N#CC(C(=O)c1ccco1)c1nc2ccccc2[nH]1 (centres undefined) [SMR000305206]
62 | 38.9 | Cc1ccc2c(c1)/C(=C/c1ccco1)C(=O)N2 [SMR000312107]
63 | 12.4 | O=C1NC(=O)/C(=C/c2ccc(O)cc2)S1 [SMR000324608]
64 | > 120 | S=C(Nc1cccnc1)Nc1cccc2cnccc12 [SMR000348842]
65 | 10.1 | O=C(Nc1nc2ccccc2[nH]1)c1ccc(Br)o1 [SMR000352903]
66 | 1.24 | NC(=O)NN=Cc1c(O)ccc2oc3c(c12)CCCC3 [SMR000414386]
67 | > 120 | COc1cc(C2c3sc(=O)[nH]c3Sc3c2c(O)n(-c2ccc(C)cc2)c3O)ccc1O (centres undefined) [SMR000414898]
68 | 16.1 | Nc1ccc(N=Nc2ccccc2O)c(N)c1 [SMR000476341]
69 | < 0.1 | Nc1nc(-c2cc(O)ccc2[N+](=O)[O-])cc(-c2ccccc2)c1[N+](=O)[O-] [SMR000504332]
70 | 25.8 | Oc1ccc(C=Nn2c(-c3ccccc3)n[nH]c2=S)cc1 [SMR000513437]
71 | > 120 | COc1ccc(CNc2nc3ccccc3s2)cc1OC [SMR000523783]
72 | 25 | CC(C)(C)c1[nH]nc2c1C(=O)c1ccccc1-2 [SMR000528110]
73 | 42.8 | CN1CCN(c2nc(-c3ccccc3O)nc3ccccc23)CC1 [SMR000539302]
74 | 15.9 | CN(C)/C=C/C(=O)c1ccc2noc(-c3ccccc3)c2c1 [SMR000549693]
75 | 1.86 | COC(=O)c1ccc(COc2ccccc2/C=C/C(=O)c2ccc(OCC(=O)O)cc2)cc1 [SMR000590970]
76 | 40.4 | COc1ccc(C(=O)ON=C(N)c2ccccn2)cc1 [SMR000608101]
77 | 0.416 | CC(Oc1ccc2c(c1)c1ccnc3c4ccccc4c(=O)n2c13)C(=O)NCCN1CCOCC1 (centres undefined) [SMR000652046]
78 | > 120 | O=C(Nc1cc(C(=O)Nc2ccccc2C(=O)O)cc(C(=O)Nc2ccccc2C(=O)O)c1)c1ccccc1 [SMR000658665]
79 | 35.8 | CCCCCCCCCCCCCCCC[N+](C)(C)CCN(Cc1ccc(OC)cc1)c1ncccn1 [SMR001233380]
